# Source: patent US20230031369A1, “THERAPEUTIC INTERACTIONS OF LEUCOMETHYLTHIONINIUM” (WisTa Laboratories Ltd., priority 2019, published 2023)
# Entries after “also recorded” stand apart in the source; their conditions may differ.
# Legend:
# [1] = tested on: ACh levels in the hippocampus; assay: Hippocampal ACh levels with scopolamine and 100 nanomolar rivastigmine in the perfusion fluid; format: in vivo, wild type mice
# Experimental: Under the condition of cholinesterase inhibition used in these experiments (a very small amount of a cholinesterase inhibitor, 100 nanomolar rivastigmine, added to the perfusion fluid), ACh levels in the hippocampus rise, and when they rise strongly enough, they limit additional ACh release by activating pre-synaptic muscarinic receptors of the M2/M4 subtype (so-called negative feedback receptors).
# In this situation, adding scopolamine (1 μM) to the perfusion fluid blocks these presynaptic receptors and, as a consequence, ACh levels rise by 3-5 fold. The fact that LMTM is not additive with rivastigmine in these experiments supports the conclusion that LMTM has a different mechanism of action from rivastigmine. In other words, although LMTM has been described as being a weak inhibitor of cholinesterases in high concentrations, the present effects seem to be unrelated to cholinesterase inhibition, because there is no additive effect with small quantities of rivastigmine.
# electron transfer chain = conditions: acting as a supplementary electron carrier in the electron transfer chain; cited from earlier work
# pathological tau = conditions: in vivo (Congdon et al., 2012); cited from earlier work
# cholinesterase = conditions: reported (Pfaffendorf et al., 1997; Deiana et al., 2009); cited from earlier work
# [2] = tested on: acetylcholine (ACh) levels in hippocampus; assay: Hippocampal ACh levels by microdialysis and HPLC, wild-type mice; format: in vivo; conditions: LMTM after prior treatment with rivastigmine
# Experimental: (§1) For measurement of acetylcholine (ACh) levels in hippocampus, animals (wild-type or L1) were treated with LMTM (5 mg/kg/day for 2 weeks) after prior treatment for 2 weeks with or without rivastigmine (0.5 mg/kg/day). Rivastigmine was administered subcutaneously with an Alzet minipump whereas LMTM was administered by oral gavage. Levels of ACh were measured in hippocampus using an implanted microdialysis probe and HPLC analysis of the extracellular fluid.
# [3] = tested on: acetylcholine (ACh) levels in hippocampus; assay: Hippocampal ACh levels by microdialysis and HPLC, L1 mice; format: in vivo, tau transgenic L1 mice
# Experimental: as §1
# [4] = tested on: SNARE complex proteins (SNAP25, syntaxin and VAMP2); assay: Immunohistochemistry of SNARE complex proteins, L1 mice; format: in vivo, tau transgenic L1 mice; conditions: combination of LMTM with chronic rivastigmine pretreatment
# Experimental: FIG. 3. Treatment effects of LMTM alone or following chronic pretreatment with rivastigmine in tau transgenic L1 mice on levels of (A) SNARE complex proteins (SNAP25, syntaxin and VAMP2) and (B) α-synuclein measured immunohistochemically as the mean value for hippocampus, visual cortex, diagonal band and septum. (*, p<0.05; ***, p<0.001; ****, p<0.0001).
# (§2) Wild-type and L1 mice (n=7-16 for each group) were pre-treated with rivastigmine (0.1 or 0.5 mg/kg/day) or memantine (2 or 20 mg/kg/day) or vehicle for 5 weeks by gavage. For the following 6 weeks, LMTM (5 and 15 mg/kg) or vehicle were added to this daily treatment regime, also by gavage. Animals were tested behaviourly during weeks 10 and 11 using a problem solving task in the open field water maze and then sacrificed for immunohistochemical and other tissue analyses.
# (§3) Translating doses from mice to humans requires consideration of a number of factors. […] The higher dose of 15 mg/kg/day is generally required for LMTM to be fully effective in the L1 mouse model (Melis et al., 2015a). […] Tissue sectioned for immunohistochemistry was labelled with antibody and processed using Image J to determine protein expression densitometrically. Data are presented as Z-score transformations without units.
# mitochondrial complex IV [5] = assay: Complex IV activity in brain mitochondria, wild-type mice; format: in vivo; conditions: following LMTM treatment
# Experimental: as §2
# mitochondrial complex IV [6] = assay: Complex IV activity relative to citrate synthetase activity in brain mitochondria, L1 mice; format: in vivo, tau transgenic L1 mice
# Experimental: as §2
# wild-type mice = assay: Problem solving task in the open field water maze, wild-type mice; format: in vivo; conditions: LMTM
# Experimental: as §2
# tau transgenic L1 mice = assay: Problem solving task in the open field water maze, L1 mice; format: in vivo
# Experimental: FIG. 7. Effect of combined administration of Memantine and LMTM on problem solving deficits in female Line 1 mice, aged 5.5 months at the beginning of the study. Memantine was administered at 20 mg/kg and LMTM at 15 mg/kg. Mice were treated with vehicle or Memantine for 5 weeks prior to Memantine plus LMTM treatment for 6 weeks, with the mice being tested in the water maze task over weeks 10 and 11.
# as §2
# [7] = tested on: glutamate release from brain synaptosomal preparations; assay: Glutamate release from brain synaptosomal preparations, L1 mice; format: in vivo, tau transgenic L1 mice
# core tau unit of the PHF = target: T1, core tau unit of the PHF (Homo sapiens, UniProt P10636); assay: Tau immunoreactivity (relative optical density) in vertical diagonal band, L1 mice; format: in vivo, tau transgenic L1 mice
# T1 construct: three-repeat tau fragment encompassing residues 296-390 of the 2N4R tau isoform; expressed in transfected cells; host or cells: transgenic L1 mice (NMRI strain, Thy 1 promotor), brain sections of the vertical diagonal band
# T1 sequence (P10636 613-707): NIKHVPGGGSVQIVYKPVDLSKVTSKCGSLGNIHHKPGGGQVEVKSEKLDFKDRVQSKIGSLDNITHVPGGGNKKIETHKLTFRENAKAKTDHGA
# Experimental: FIG. 5. Treatment effects of LMTM alone or following chronic pretreatment with rivastigmine in tau transgenic L1 mice compared with vehicle-treated wild-type mice on levels of tau immunoreactivity (relative optical density) (A) and neurons immunoreactive for choline acetyltransferase (B) in vertical diagonal band. (*, p<0.05; **, p<0.01; ***, p<0.001).
# as §2, §3
# [8] = ADAS-cog change after withdrawal of LMTM 8 mg/day following 18 months of treatment; format: in vivo, human
# Experimental: Following 18 months of treatment with 8 mg/day LMTM, subjects were required to have a 1 month “washout” followed by cognitive assessment of change. The group was split according to whether they has received LMTM as an add-on to existing symptomatic therapy (AChEI, Memantine, collectively abbreviated to “Achmem”) or as a monotherapy.
# The group was further analysed in terms of subjects who had received a high Cmax exposure or a low one.
# [9] = 8 mg/day dose; split at Cmax threshold of […]; from WO2020/020751; cited from earlier work
# [10] = LMTM preceded by chronic rivastigmine
structure (smiles),measurement,setting,value
"CN1[C@@H]2C[C@@H](OC(=O)[C@H](CO)c3ccccc3)C[C@H]1[C@@H]1O[C@@H]12 [scopolamine, reference compound]",rise in ACh levels,[1]; scopolamine 1 μM added to the perfusion fluid containing 100 nanomolar rivastigmine,3-5 fold
"CN(C)c1ccc2nc3ccc(=[N+](C)C)cc-3sc2c1 [MT, Methylthioninium]",concentrations at which mitochondrial activity is enhanced,electron transfer chain,10 to 100 nM
same,concentration range increasing clearance of pathological tau via enhancement of autophagy,pathological tau,10-20 nM
same,cholinesterase inhibition,cholinesterase,weak cholinesterase inhibitor
"CN(C)c1ccc2c(c1)Sc1cc(N(C)C)ccc1N2 [LMTM, Leuco-methylthioninium bis(hydromethanesulfonate)]",reduction in basal ACh levels in hippocampus,[2],30%
same,ACh release in the hippocampus,[3]; LMTM alone,increased; also recorded: significant increases
same,ACh release in the hippocampus,[3]; [10],None of these effects were seen
same,SNARE complex proteins,[4],levels below those seen in the absence of LMTM treatment
same,complex IV activity,mitochondrial complex IV [5],did not show any increase; also recorded: no effect
same,mitochondrial complex IV activity,mitochondrial complex IV [6]; LMTM alone,increased; also recorded: significant increases; also recorded: significant enhancement; also recorded: strong effect
same,mitochondrial complex IV activity,mitochondrial complex IV [6]; [10],None of these effects were seen; also recorded: eliminated this effect
same,spatial recognition memory,wild-type mice,not associated with improvement
same,behavioural changes (spatial learning),tau transgenic L1 mice; LMTM alone,reversed deficits; also recorded: significant increases
same,behavioural changes,tau transgenic L1 mice; [10],None of these effects were seen
same,glutamate release from brain synaptosomal preparations,[7]; LMTM alone,increased; also recorded: significant increases; also recorded: restoration of normal glutamate release
same,glutamate release from brain synaptosomal preparations,[7]; [10],None of these effects were seen
same,immunoreactivity against the core tau unit of the PHF measured by optical density,core tau unit of the PHF; LMTM after prior chronic treatment with rivastigmine,persist
same,immunoreactivity against the core tau unit of the PHF measured by optical density,core tau unit of the PHF; LMTM alone,reduced
same,ACh levels,"[1]; wild type mice, scopolamine experiments, combination of LMTM with rivastigmine",inhibitory; also recorded: not additive
same,increase in ACh levels,"[1]; wild type mice, scopolamine used to increase ACh levels, LMTM alone",less than that seen with rivastigmine alone
same,ADAS-cog change following LMTM withdrawal,"[8]; 18 month LMTM 8 mg/day as add on to symptomatic therapy (AChEI, Memantine), high exposure (Cmax) group, p-value=0.0021",−0.98
same,ADAS-cog change following LMTM withdrawal,"[8]; 18 month LMTM 8 mg/day as add on to symptomatic therapy (AChEI, Memantine), lower exposure group, p-value=0.0855",0.51
same,ADAS-cog change following LMTM withdrawal,"[8]; 18 month LMTM 8 mg/day monotherapy, high exposure (Cmax) group, p-value=0.1651",0.73
same,ADAS-cog change following LMTM withdrawal,"[8]; 18 month LMTM 8 mg/day monotherapy, lower exposure group, p-value=0.0011",2.29
same,treatment difference in high and low Cmax patients,[9],−3.4 ADAS-cog units
